{"source": "ChEMBL document CHEMBL5523740", "about": "“Discovery of Potent and Selective c-Met Degraders for Hepatocellular Carcinoma Treatment” (J Med Chem, 2024)", "key": {"MHCC97H [1]": {"system": "MHCC97H", "test": "Induction of apoptosis in human MHCC97H cells assessed as necrotic cells at 3 nM incubated for 24 hrs by Annexin-V-FITC/PI staining based flow cytometry analysis (reference value: 1.77%)", "format": "functional"}, "MHCC97H [2]": {"system": "MHCC97H", "test": "Induction of cell cycle arrest in human MHCC97H cells assessed as accumulation of cells at G1 phase at 100 nM incubated for 24 hrs by PI staining based flow cytometry analysis (reference value: 70.4%)", "format": "functional"}, "MHCC97H [3]": {"system": "MHCC97H", "test": "Induction of apoptosis in human MHCC97H cells assessed as early apoptotic cells at 10 nM incubated for 24 hrs by Annexin-V-FITC/PI staining based flow cytometry analysis (reference value: 7.70%)", "format": "functional"}, "[4]": {"molecular_target": "T1, Hepatocyte growth factor receptor (Homo sapiens, UniProt P08581)", "T1 sequence (P08581 whole entry)": "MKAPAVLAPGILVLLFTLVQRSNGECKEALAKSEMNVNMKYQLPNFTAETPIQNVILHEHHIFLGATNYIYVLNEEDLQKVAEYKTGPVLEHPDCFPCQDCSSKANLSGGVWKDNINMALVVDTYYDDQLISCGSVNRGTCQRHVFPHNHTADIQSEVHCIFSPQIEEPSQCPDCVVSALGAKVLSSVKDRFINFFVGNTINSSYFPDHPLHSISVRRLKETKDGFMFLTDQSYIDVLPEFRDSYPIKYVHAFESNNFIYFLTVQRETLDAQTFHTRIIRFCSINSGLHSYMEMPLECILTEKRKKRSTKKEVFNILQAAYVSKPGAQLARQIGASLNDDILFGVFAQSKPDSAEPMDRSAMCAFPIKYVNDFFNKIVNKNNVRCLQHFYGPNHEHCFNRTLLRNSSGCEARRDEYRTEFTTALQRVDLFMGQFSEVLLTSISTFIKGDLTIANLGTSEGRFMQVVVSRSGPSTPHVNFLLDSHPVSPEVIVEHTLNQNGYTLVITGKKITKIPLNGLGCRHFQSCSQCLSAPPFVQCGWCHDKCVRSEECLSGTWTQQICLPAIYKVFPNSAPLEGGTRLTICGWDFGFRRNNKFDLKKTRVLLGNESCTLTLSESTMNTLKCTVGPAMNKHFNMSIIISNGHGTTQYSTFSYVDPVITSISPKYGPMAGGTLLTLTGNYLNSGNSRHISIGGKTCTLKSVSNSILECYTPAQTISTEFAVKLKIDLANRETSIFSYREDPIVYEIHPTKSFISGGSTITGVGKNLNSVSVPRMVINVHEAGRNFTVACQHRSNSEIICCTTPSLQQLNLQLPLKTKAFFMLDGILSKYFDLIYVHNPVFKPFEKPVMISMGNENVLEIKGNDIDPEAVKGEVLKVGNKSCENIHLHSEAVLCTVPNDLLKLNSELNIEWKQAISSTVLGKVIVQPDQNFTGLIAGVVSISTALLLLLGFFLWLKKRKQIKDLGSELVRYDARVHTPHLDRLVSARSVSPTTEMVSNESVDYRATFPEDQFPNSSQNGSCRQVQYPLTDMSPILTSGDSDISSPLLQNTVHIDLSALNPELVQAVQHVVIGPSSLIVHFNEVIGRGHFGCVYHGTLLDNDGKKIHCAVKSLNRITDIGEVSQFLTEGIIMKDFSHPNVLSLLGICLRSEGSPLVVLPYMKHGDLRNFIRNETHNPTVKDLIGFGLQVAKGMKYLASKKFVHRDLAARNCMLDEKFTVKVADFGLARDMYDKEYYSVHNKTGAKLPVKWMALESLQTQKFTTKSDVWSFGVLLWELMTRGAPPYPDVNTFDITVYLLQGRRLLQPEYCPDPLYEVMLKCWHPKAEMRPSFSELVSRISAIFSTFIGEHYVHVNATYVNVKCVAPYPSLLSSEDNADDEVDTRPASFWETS", "test": "Induction of c-Met degradation in human MHCC97H cells at 1 uM incubated for 24 hrs by Western blotting analysis", "format": "cell-based"}, "[5]": {"molecular_target": "T1, Hepatocyte growth factor receptor", "test": "Induction of c-Met degradation in human MHCC97H cells at 500 nM after 24 hrs in presence of MG-132 by Western blotting analysis", "format": "cell-based"}, "[6]": {"test": "Toxicity in BALB/c mouse xenografted with human MHCC97H cells assessed as lung lesions at 20 mg/kg, po qd for 22 days and measured every 2 days by H and E staining based assay", "format": "organism-based", "settings": "in vivo, 528 h, time 22 day"}, "MHCC97H [7]": {"system": "MHCC97H", "test": "Induction of apoptosis in human MHCC97H cells assessed as early apoptotic cells at 3 nM incubated for 24 hrs by Annexin-V-FITC/PI staining based flow cytometry analysis (reference value: 7.70%)", "format": "functional"}, "[8]": {"molecular_target": "T1, Hepatocyte growth factor receptor", "test": "Induction of c-Met degradation in human MHCC97H cells at 500 nM after 3 to 24 hrs by Western blotting analysis", "format": "cell-based", "settings": "time 3-24 hrs"}, "MHCC97H [9]": {"system": "MHCC97H", "test": "Antitumor activity against human MHCC97H cells xenografted in BALB/c mouse assessed as tumor growth inhibition at 10 mg/kg, ip qd for 22 days and measured every 2 days", "format": "functional", "settings": "528 h, time 22 day, read-out: TGI"}, "[10]": {"test": "Toxicity in BALB/c mouse xenografted with human MHCC97H cells assessed as lung lesions at 10 mg/kg, ip qd for 22 days and measured every 2 days by H and E staining based assay", "format": "organism-based", "settings": "in vivo, 528 h, time 22 day"}, "MHCC97H [11]": {"system": "MHCC97H", "test": "Induction of cell cycle arrest in human MHCC97H cells assessed as accumulation of cells at G1 phase at 3 nM incubated for 24 hrs by PI staining based flow cytometry analysis (reference value: 70.4%)", "format": "functional"}, "Mus musculus [12]": {"system": "Mus musculus", "test": "Downregulation of c-Met protein level in BALB/c mouse tumor xenografted with human MHCC97H cells at 20 mg/kg, po qd for 22 days and measured every 2 days by Western blotting analysis", "format": "functional, organism-based", "settings": "time 22.0 day"}, "MHCC97H [13]": {"system": "MHCC97H", "test": "Induction of apoptosis in human MHCC97H cells assessed as necrotic cells at 10 nM incubated for 24 hrs by Annexin-V-FITC/PI staining based flow cytometry analysis (reference value: 1.77%)", "format": "functional"}, "MHCC97H [14]": {"system": "MHCC97H", "test": "Induction of apoptosis in human MHCC97H cells assessed as late apoptotic cells at 100 nM incubated for 24 hrs by Annexin-V-FITC/PI staining based flow cytometry analysis (reference value: 4.24%)", "format": "functional"}, "Mus musculus [15]": {"system": "Mus musculus", "test": "Downregulation of phosphorylated STAT3 level in BALB/c mouse tumor xenografted with human MHCC97H cells at 20 mg/kg, po qd for 22 days and measured every 2 days by Western blotting analysis", "format": "functional, organism-based", "settings": "time 22.0 day"}, "[16]": {"test": "AUC(0 to infinity) in Sprague-Dawley rat at 10 mg/kg, po by LC-MS/MS method", "format": "ADME, organism-based", "settings": "in vivo"}, "MHCC97H [17]": {"system": "MHCC97H", "test": "Induction of apoptosis in human MHCC97H cells assessed as early apoptotic cells at 100 nM incubated for 24 hrs by Annexin-V-FITC/PI staining based flow cytometry analysis (reference value: 7.70%)", "format": "functional"}, "[18]": {"test": "Toxicity in BALB/c mouse xenografted with human MHCC97H cells assessed as liver lesions at 20 mg/kg, po qd for 22 days and measured every 2 days by H and E staining based assay", "format": "organism-based", "settings": "in vivo, 528 h, time 22 day"}, "Mus musculus [19]": {"system": "Mus musculus", "test": "Downregulation of phosphorylated STAT3 level in BALB/c mouse tumor xenografted with human MHCC97H cells at 10 mg/kg, ip qd for 22 days and measured every 2 days by Western blotting analysis", "format": "functional, organism-based", "settings": "time 22.0 day"}, "BaF3": {"system": "BaF3", "test": "Antiproliferative activity against mouse BaF3 cells harboring TPR-MET fusion protein incubated for 72 hrs by CellTiter-Glo reagent based assay", "format": "functional, cell-based", "settings": "BaF3, 72 h"}, "[20]": {"test": "Toxicity in BALB/c mouse xenografted with human MHCC97H cells assessed as reduction in body weight at 20 mg/kg, po qd for 22 days and measured every 2 days", "format": "organism-based", "settings": "in vivo, 528 h, time 22 day"}, "MHCC97H [21]": {"system": "MHCC97H", "test": "Induction of apoptosis in human MHCC97H cells assessed as necrotic cells incubated for 24 hrs by Annexin-V-FITC/PI staining based flow cytometry analysis", "format": "functional, cell-based", "settings": "dose 3-100 nM"}, "MHCC97H [22]": {"system": "MHCC97H", "test": "Antitumor activity against human MHCC97H cells xenografted in BALB/c mouse assessed as reduction in tumor positive cells at 10 mg/kg, ip qd for 22 days and measured every 2 days by Ki67 staining based analysis", "format": "functional, organism-based", "settings": "time 22.0 day"}, "MHCC97H [23]": {"system": "MHCC97H", "test": "Induction of apoptosis in human MHCC97H cells assessed as necrotic cells at 100 nM incubated for 24 hrs by Annexin-V-FITC/PI staining based flow cytometry analysis (reference value: 1.77%)", "format": "functional"}, "MHCC97H [24]": {"system": "MHCC97H", "test": "Induction of cell cycle arrest in human MHCC97H cells assessed as accumulation of cells at G2 phase at 100 nM incubated for 24 hrs by PI staining based flow cytometry analysis (reference value: 19.1%)", "format": "functional"}, "[25]": {"test": "Half-life in Sprague-Dawley rat at 10 mg/kg, po by LC-MS/MS method", "format": "ADME, organism-based", "settings": "in vivo"}, "[26]": {"test": "Cmax in Sprague-Dawley rat at 1 mg/kg, iv by LC-MS/MS method", "format": "ADME, organism-based", "settings": "in vivo"}, "MHCC97H [27]": {"system": "MHCC97H", "test": "Inhibition of colony formation in human MHCC97H cells at 3 to 100 nM incubated for 2 weeks by crystal violet staining based assay", "format": "functional, cell-based", "settings": "dose 3-100 nM"}, "[28]": {"test": "Toxicity in BALB/c mouse xenografted with human MHCC97H cells assessed as heart lesions at 20 mg/kg, po qd for 22 days and measured every 2 days by H and E staining based assay", "format": "organism-based", "settings": "in vivo, 528 h, time 22 day"}, "MHCC97H [29]": {"system": "MHCC97H", "test": "Induction of apoptosis in human MHCC97H cells assessed as viable cells at 10 nM incubated for 24 hrs by Annexin-V-FITC/PI staining based flow cytometry analysis (reference value: 86.3%)", "format": "functional", "settings": "read-out: Activity"}, "[30]": {"test": "Toxicity in BALB/c mouse xenografted with human MHCC97H cells assessed as heart lesions at 10 mg/kg, ip qd for 22 days and measured every 2 days by H and E staining based assay", "format": "organism-based", "settings": "in vivo, 528 h, time 22 day"}, "[31]": {"test": "AUC(0 to infinity) in Sprague-Dawley rat at 1 mg/kg, iv by LC-MS/MS method", "format": "ADME, organism-based", "settings": "in vivo"}, "MHCC97H [32]": {"system": "MHCC97H", "test": "Induction of apoptosis in human MHCC97H cells assessed as late apoptotic cells at 3 nM incubated for 24 hrs by Annexin-V-FITC/PI staining based flow cytometry analysis (reference value: 4.24%)", "format": "functional"}, "[33]": {"molecular_target": "T1, Hepatocyte growth factor receptor", "test": "Induction of c-Met degradation in human MHCC97H cells at 500 nM by Western blotting analysis", "format": "cell-based", "settings": "time 3-48 hrs, TDE = time-dependent effect"}}, "note": "Calls of active or inactive are those of the source. No cut-off for these calls is given here."}
{"smiles": "N#Cc1cccc(-c2ccc(=O)n(Cc3cccc(-c4ncc(OCC5CCN(CCCCCC(=O)NCC67CC8CC(CC(C8)C6)C7)CC5)cn4)c3)n2)c1", "values": [{"measurement": "Activity", "setting": "MHCC97H [1]", "value": 0.74, "unit": "%"}, {"measurement": "Activity", "setting": "MHCC97H [2]", "value": 79.1, "unit": "%"}, {"measurement": "Activity", "setting": "MHCC97H [3]", "value": 19.7, "unit": "%"}, {"measurement": "Activity", "setting": "[4]", "value": 84.8, "unit": "%"}, {"measurement": "Activity", "setting": "[5]", "value": "inactive"}, {"measurement": "Activity", "setting": "[6]", "value": "Non-Toxic"}, {"measurement": "Activity", "setting": "MHCC97H [7]", "value": 16, "unit": "%"}, {"measurement": "Activity", "setting": "[8]", "value": "Active"}, {"measurement": "inhibition in vivo at 10 mg/kg", "setting": "MHCC97H [9]", "value": 61.5, "unit": "%"}, {"measurement": "Activity", "setting": "[10]", "value": "Non-Toxic"}, {"measurement": "Activity", "setting": "MHCC97H [11]", "value": 74.6, "unit": "%"}, {"measurement": "Activity", "setting": "Mus musculus [12]", "value": "Active"}, {"measurement": "Activity", "setting": "MHCC97H [13]", "value": 1.4, "unit": "%"}, {"measurement": "Activity", "setting": "MHCC97H [14]", "value": 6.06, "unit": "%"}, {"measurement": "Activity", "setting": "Mus musculus [15]", "value": "Active"}, {"measurement": "AUC(0-inf)", "setting": "[16]", "value": 74.5, "unit": "ng·h/mL"}, {"measurement": "Activity", "setting": "MHCC97H [17]", "value": 39.9, "unit": "%"}, {"measurement": "Activity", "setting": "[18]", "value": "Non-Toxic"}, {"measurement": "Activity", "setting": "Mus musculus [19]", "value": "Active"}, {"measurement": "IC50", "setting": "BaF3", "value": 6.2, "unit": "nM"}, {"measurement": "Activity", "setting": "[20]", "value": "Non-Toxic"}, {"measurement": "Activity", "setting": "MHCC97H [21]", "value": "Dose-Dependent Effect"}, {"measurement": "Activity", "setting": "MHCC97H [22]", "value": "Active"}, {"measurement": "Activity", "setting": "MHCC97H [23]", "value": 1.35, "unit": "%"}, {"measurement": "Activity", "setting": "MHCC97H [24]", "value": 13.6, "unit": "%"}, {"measurement": "half-life", "setting": "[25]", "value": 2.57, "unit": "h"}, {"measurement": "Cmax", "setting": "[26]", "value": 1630, "unit": "ng/mL"}, {"measurement": "inhibition", "setting": "MHCC97H [27]", "value": "Active"}, {"measurement": "Activity", "setting": "[28]", "value": "Non-Toxic"}, {"measurement": "viability at 0.01 µM", "setting": "MHCC97H [29]", "value": 72.7, "unit": "%"}, {"measurement": "Activity", "setting": "[30]", "value": "Non-Toxic"}, {"measurement": "AUC(0-inf)", "setting": "[31]", "value": 994, "unit": "ng·h/mL"}, {"measurement": "Activity", "setting": "MHCC97H [32]", "value": 3.76, "unit": "%"}, {"measurement": "Activity", "setting": "[33]", "value": "Tde"}]}
